The record followed here is patent US20070072830A1, “Methods for treating diabetes” (Point Therapeutics, Inc., priority 2004, published 2007).

In one data set the test system is Lewis rats. The method, then:
(§1) Serum DPP-IV inhibition and observation of acute toxicity of amino boronic dipeptides in Lewis rats. […] After observations were completed or at the onset of a moribund state, humane euthanasia was performed by asphyxiation in 100% CO2.

Data set [1] deals with T1, soluble recombinant human DPP-IV (Homo sapiens, UniProt P27487).
T1 construct: immunoglobulin kappa light chain secretion signal (pSecTag2-B) (N, cleaved yes); made in house; host or cells: 293T cells, transient transfection; culture supernatant used unpurified
Description: In vitro inhibition of recombinant soluble DPP-IV by amino boronic dipeptides. Type of data set: biochemical. The note with it: assayed at 3 minutes, 78 minutes and 16 hours after addition of Ala-Pro-AFC. The text has this: Production of soluble recombinant human DPP-IV. Based on information on the N-terminus of serum DPP-IV (15), a truncated DPP-IV was engineered in which a signal/leader sequence was joined to the residue in DPP-IV corresponding to the N-terminus of serum DPP-IV to allow secretion. The cDNA encoding the desired truncated human DPP-IV dimer enzyme was engineered into the mammalian secretion vector pSecTag2 (Cat# V900-20, InVitrogen Corporation). The vector, available in A, B or C versions, representing three possible phases for gene fusion, contained an immunoglobulin-kappa light chain secretion signal followed by a selection of restriction sites for gene insertion. The fusion required engineering a restriction site upstream of the chosen fusion amino acid in the 5′ end of the DPP-IV dimer enzyme nucleic acid in phase with the chosen restriction site (Sfi I) in the vector secretion sequence. The chosen fusion amino acid in the 5′ end of the DPP-IV (Ser39) was 3′ of the trans-membrane anchoring domain. The pSecTag2 version B and its Sfi I restriction site was chosen for the fusion because it minimizes the additional N-terminal, vector-encoded residues in the mature secreted protein.
Construction of the fusion was as follows. First, total RNA was isolated from the Caco-2 colorectal carcinoma cell line (ATCC HTB-37) by standard Trizol/phenol /chloroform methodology. The purified RNA (approx. 2.5 μg in a 20 μl reaction) was used to make cDNA using oligo-dT primer and a commercial reverse transcription (RT) kit (InVitrogen). […] The following thermal cycler program was used: 94° C. for 45 sec. initial denaturation, then 30 cycles of 94° C., 10 sec.; 48° C., 6 sec.; 60° C., 4 min; followed by 5-min. extension at 72° C. after cycling.
DNA from the plasmid encoding DPP-IV dimer enzyme was prepared on an approximately 400 μg scale from overnight 30 ml cultures in Luria broth with 100 μg ampicillin per ml using a commercial kit (Qiagen Maxiprep Kit).
In vitro assay of enzymatic activity of recombinant soluble DPP-IV and inhibition by amino boronic dipeptides. The assay reaction mixture consisted of 135 μl 50 mM HEPES/Na buffer pH 7.6, 140 mM NaCl, 10-15 μl enzyme-containing culture supernatant, dipeptide substrate Ala-Pro-(7-amino-4-trifluoromethyl coumarin) (Ala-Pro-AFC; Enzyme System Products, Dublin, Calif.) at typically 0.1-1 mM added from a 100 or 400 mM stock in dimethyl formamide. The reaction mixture was incubated at room temperature, and production of the fluorescent AFC product was measured in a fluorometer (excitation, 400 nm; emission 505 nm), either by continuous monitoring or after termination with a one to one-tenth volume of 1-M sodium acetate, pH 4.5. Fluorometric reading were made with a […] Spectra Max GeminiXS capable of reading 96-well microtiter plates. The inhibitory activity of amino boronic dipeptides was investigated by preincubation of assay reaction mixtures with varying concentrations of each compound for 10 minutes before the addition of the substrate Ala-Pro-AFC.

Data set [2] addresses T2, serum DPP-IV (Mus musculus, UniProt P28843).
T2 construct: from tissue; host or cells: serum of BALB/c mice dosed orally
Description: Serum DPP-IV inhibition in vivo in BALB/c mice after oral gavage. The note with it: 2 hours. The procedure:
(§2) Assay of serum DPP-IV inhibition in vivo.
(§3) Assay ofserum DPP-IV inhibition and KC/CXCL1 levels in vivo. […] Each mouse received a single administration of each amino boronic dipeptide or saline, and blood samples were withdrawn from mice 2 hours later.
Serum DPP-IV activity was determined by reaction of a 10 μl volume of serum with 0.1 mM Ala-Pro-AFC (Enzyme System Products, Dublin, Calif.) in a 100 μl volume of 50 mM HEPES/Na buffer pH 7.6, 140 mM NaCl. […] Serum DPP-IV activity was expressed as fluorescent units (FU).

A further data set relates to serum KC/CXCL1. Description: Serum KC/CXCL1 levels in vivo in BALB/c mice. To be noted: 0.2-200 μg/mouse oral, 2 hours. The method, then:
as §3
Serum concentration of mouse KC/CXCL1 was determined by Quantikine enzyme-linked immunosorbent assay (ELISA; R&D Systems, Minneapolis, Minn.) according to the manufacturer's instructions. ELISA was performed in duplicate for each sample.

The next data set concerns Zucker fa/fa rats. Description: Rat oral glucose tolerance test (OGTT): glucose, insulin, GLP-1. The note with it: 10 μmol/kg oral. Type of data set: in vivo. An excerpt:
Protocol for rat oral glucose tolerance test (OGTT). […] On days −11 to −8, rats were fitted with intra-arterial catheters under light isoflurane anesthesia. […] From 12:00 a.m.

The next data set concerns ob/ob mice. Briefly: Mouse oral glucose tolerance test (OGTT). It counts as in vivo. The method, then:
Protocol for mouse oral glucose tolerance test (OGTT). The day of oral-glucose challenge was defined as day 0. […] Agents were administered by oral gavage. Mice were restricted to a diet of 50% of their individual calculated food intake from day −1 onwards. On day 0, blood glucose was measured at t−15 min. immediately followed by drug administration. At time point 0, glucose was administered by oral gavage (1 g/kg), and blood glucose was measured at time points 0, 30, 60, 120 and 240 minutes. Means±SE were calculated from the data of individual mice in drug-treatment groups 1 and 2.

The subject of data set [3] is human bone marrow stromal cells. Briefly: G-CSF supernatant levels in human bone marrow stromal cell cultures. Type of data set: cell-based. The note with it: 1 to 10^4 nM, 24 hours in vitro. The procedure: Human bone marrow stromal cell cultures. Samples of normal human bone marrow were purchased from Cambrex Bioproducts (Walkersville, Md.) and mononuclear cells were purified over Ficoll-Hypaque (Nycomed, Oslo, Norway). Human stromal layers were established by seeding 4×10^7 mononuclear cells into T75 flasks (Coming) containing 20 ml MyeloCult medium (Stem Cell Technologies, Vancouver, BC) supplemented with 10^−6 M hydrocortisone (Sigma) and incubation at 37° C. in 100% humidified 5% CO2 in air. After one week, half the medium was exchanged, and the cultures incubated for approximately one week more, after which time, a semi-confluent cell layer was formed. Stromal cells were harvested by trypsinization using standard technique and 10^5 cells/well were seeded in multi-well plates in 1 ml of fully supplemented DMEM (InVitrogen, Carlsbad, Calif.). […] Multiwell cultures without the addition of amino boronic dipeptides served as controls. […] Supernatant concentrations of human G-CSF were determined by Quantikine enzyme-linked immunosorbent assay (ELISA; R&D Systems, Minneapolis, Minn.) according to the manufacturer's instructions. […] The effect of each amino boronic dipeptide on the level of supernatant G-CSF was determined by calculating a stimulation index (SI): SI=(mean G-CSF concentration in culture with amino boronic dipeptide)/(mean G-CSF concentration in control culture).

The target in data set [4] is T3, serum DPP-IV (Rattus norvegicus, UniProt P14740).
T3 construct: from tissue; host or cells: serum of Lewis rats dosed in vivo
Briefly: Serum DPP-IV inhibition in Lewis rats. The note with it: single oral administration, 2 hours. It counts as in vivo. The procedure: as §2, §1

Setting [5] is: Lewis rats, single dose, observed 5 days.

Like-named read-outs stand apart in the source and are kept apart here.

T1 sequence (P27487 39-766): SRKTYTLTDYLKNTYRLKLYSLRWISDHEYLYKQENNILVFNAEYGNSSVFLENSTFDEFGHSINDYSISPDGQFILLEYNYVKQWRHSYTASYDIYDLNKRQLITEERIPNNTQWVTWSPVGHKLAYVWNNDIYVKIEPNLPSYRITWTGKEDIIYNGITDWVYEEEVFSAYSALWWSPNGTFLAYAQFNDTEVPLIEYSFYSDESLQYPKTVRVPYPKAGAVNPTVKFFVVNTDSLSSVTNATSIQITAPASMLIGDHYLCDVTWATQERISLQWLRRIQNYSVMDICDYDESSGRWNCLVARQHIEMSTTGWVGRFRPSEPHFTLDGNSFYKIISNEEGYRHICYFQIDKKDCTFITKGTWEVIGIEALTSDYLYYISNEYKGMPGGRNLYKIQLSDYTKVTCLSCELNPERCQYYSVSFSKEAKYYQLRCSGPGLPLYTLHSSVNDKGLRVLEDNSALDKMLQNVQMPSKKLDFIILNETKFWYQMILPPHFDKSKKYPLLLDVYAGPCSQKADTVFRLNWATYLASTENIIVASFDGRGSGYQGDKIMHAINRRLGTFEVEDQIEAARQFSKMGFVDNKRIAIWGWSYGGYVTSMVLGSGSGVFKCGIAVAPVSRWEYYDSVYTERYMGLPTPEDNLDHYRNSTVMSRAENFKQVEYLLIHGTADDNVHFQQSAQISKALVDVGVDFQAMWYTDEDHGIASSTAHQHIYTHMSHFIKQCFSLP
T2 sequence (P28843 37-760 limits assumed): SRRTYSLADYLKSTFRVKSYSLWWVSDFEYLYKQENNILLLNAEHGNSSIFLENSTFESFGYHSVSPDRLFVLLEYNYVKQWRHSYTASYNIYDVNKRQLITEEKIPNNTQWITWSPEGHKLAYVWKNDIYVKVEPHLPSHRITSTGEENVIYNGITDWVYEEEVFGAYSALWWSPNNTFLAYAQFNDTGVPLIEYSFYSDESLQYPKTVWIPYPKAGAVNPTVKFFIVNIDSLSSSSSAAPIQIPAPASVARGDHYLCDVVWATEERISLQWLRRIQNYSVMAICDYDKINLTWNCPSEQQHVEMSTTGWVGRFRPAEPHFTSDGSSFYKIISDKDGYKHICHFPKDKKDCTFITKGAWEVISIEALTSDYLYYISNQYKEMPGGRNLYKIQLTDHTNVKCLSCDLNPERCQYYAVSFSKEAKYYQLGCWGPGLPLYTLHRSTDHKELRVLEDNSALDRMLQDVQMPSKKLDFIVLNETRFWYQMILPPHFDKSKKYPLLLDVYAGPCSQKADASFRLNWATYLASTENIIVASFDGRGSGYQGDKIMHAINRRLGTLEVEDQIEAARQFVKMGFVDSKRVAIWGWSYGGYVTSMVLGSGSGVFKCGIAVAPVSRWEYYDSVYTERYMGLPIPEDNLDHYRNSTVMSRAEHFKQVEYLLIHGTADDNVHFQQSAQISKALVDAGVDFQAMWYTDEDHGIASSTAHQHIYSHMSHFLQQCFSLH
T3 sequence (P14740 37-767 limits assumed): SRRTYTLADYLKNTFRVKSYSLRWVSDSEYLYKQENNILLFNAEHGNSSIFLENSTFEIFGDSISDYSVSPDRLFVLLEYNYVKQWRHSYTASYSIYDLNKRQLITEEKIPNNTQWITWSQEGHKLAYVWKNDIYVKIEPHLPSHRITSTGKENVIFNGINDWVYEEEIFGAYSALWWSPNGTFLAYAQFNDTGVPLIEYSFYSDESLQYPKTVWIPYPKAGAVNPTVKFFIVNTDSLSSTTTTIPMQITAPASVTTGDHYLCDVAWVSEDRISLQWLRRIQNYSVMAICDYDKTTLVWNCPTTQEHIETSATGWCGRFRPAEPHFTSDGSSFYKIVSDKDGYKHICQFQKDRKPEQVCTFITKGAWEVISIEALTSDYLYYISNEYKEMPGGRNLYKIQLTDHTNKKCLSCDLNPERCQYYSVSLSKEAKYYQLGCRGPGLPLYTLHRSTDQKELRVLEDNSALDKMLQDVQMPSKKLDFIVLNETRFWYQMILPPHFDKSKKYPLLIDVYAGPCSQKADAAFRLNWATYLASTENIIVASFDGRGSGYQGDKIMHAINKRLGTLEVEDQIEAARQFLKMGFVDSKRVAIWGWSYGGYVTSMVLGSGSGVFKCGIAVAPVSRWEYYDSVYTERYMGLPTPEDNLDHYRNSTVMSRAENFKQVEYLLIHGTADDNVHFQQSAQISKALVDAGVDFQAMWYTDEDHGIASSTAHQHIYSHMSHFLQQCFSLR

Regarding `C[C@H](N)C(=O)N1CCC[C@H]1B(O)O` [Ala-boroPro], the “MTD (maximum tolerated dose)” value in the data set with Lewis rats (setting [5]) is “≧2,000 μg/kg”.
Turning to `NC(N)=NCCC[C@H](N)C(=O)N1CCC[C@H]1B(O)O` [Arg-boroPro], the “MTD (maximum tolerated dose)” value in the data set with Lewis rats (setting [5]) was “≧2,000 μg/kg”. Also, the “Persistence / reversibility of DPP-IV inhibition” value in data set [1] is on record as “more rapidly reversible”.
Turning to `NC(=O)CC[C@H](N)C(=O)N1CCC[C@H]1B(O)O` [Gln-boroPro], in the data set with Lewis rats (setting [5]), the “MTD (maximum tolerated dose)” value was “≧800 μg/kg”.
As for `N[C@@H](CCC(=O)O)C(=O)N1CCC[C@H]1B(O)O` [Glu-boroPro], in the data set on Lewis rats (Lewis, rat, in vivo, 5 days), the “MTD (maximum tolerated dose)” value is on record as 15,000 μg/kg. For the same compound, the “Inhibition of serum DPP-IV activity” value on serum DPP-IV [2] (20 and 200 μg doses per mouse, oral) was “maximally inhibited serum DPP-IV activity”. Besides, the “ID50 (dose required to reduce serum DPP-IV activity by 50% of baseline)” value on serum DPP-IV [2] (BALB/c mice, single oral dose) is listed as 1 μg/mouse. Besides, the “Effect on serum levels of KC/CXCL1” value with serum KC/CXCL1 is “failed to affect serum levels of KC/CXCL1 at any of the doses tested”. Moreover, in the data set on Zucker fa/fa rats, the “Blood plasma level of GLP-1 following oral glucose challenge” value was “increased” and the “Blood plasma level of insulin following oral glucose challenge” value is listed as “increased”. Also, the “Blood glucose excursion after oral glucose challenge” value in the data set with Zucker fa/fa rats (glucose 2 g/kg) was “reduced”. Also, the “Glucose excursion post oral glucose challenge” value with ob/ob mice (1.0 μmol/kg oral, 15 minutes prior to glucose 1 g/kg) was “reduced”. Further, in the data set with ob/ob mice (single 1.0 μmol/kg dose, ANOVA), the “Anti-glycemic effect (area under the blood glucose curve)” value is reported as “significant (P=0.0010)”. For the same compound, the “Persistence / reversibility of DPP-IV inhibition” value in data set [1] is “sustained DPP-IV inhibition”.
As to `CC[C@H](C)[C@H](N)C(=O)N1CCC[C@H]1B(O)O` [Ile-boroPro], the “MTD (maximum tolerated dose)” value in the data set with Lewis rats (setting [5]) came out at 120 µg/kg. In addition, the “Effect on serum levels of KC/CXCL1” value in the data set with serum KC/CXCL1 was “stimulate increased serum levels of KC/CXCL1 in a dose-dependent manner”. For the same compound, the “Persistence / reversibility of DPP-IV inhibition” value in data set [1] was “sustained DPP-IV inhibition”. Besides, in data set [3], the “Stimulation of G-CSF levels in culture supernatants (stimulation index)” value is “stimulate increased levels of G-CSF”.
On the same counts, the results for `CC(C)C[C@H](N)C(=O)N1CCC[C@H]1B(O)O` [Leu-boroPro] are 200 µg/kg, “stimulate increased serum levels of KC/CXCL1 in a dose-dependent manner”, “more rapidly reversible” and “stimulate increased levels of G-CSF”.
In the case of `NCCCC[C@H](N)C(=O)N1CCC[C@H]1B(O)O` [Lys-boroPro], the “MTD (maximum tolerated dose)” value in the data set on Lewis rats (setting [5]) is reported as “≧2,000 μg/kg”. The “Persistence / reversibility of DPP-IV inhibition” value in data set [1] is “more rapidly reversible”.
As to `CSCC[C@H](N)C(=O)N1CCC[C@H]1B(O)O` [Met-boroPro], the “MTD (maximum tolerated dose)” value in the data set on Lewis rats (setting [5]) was 160 µg/kg.
As to `N[C@@H](Cc1ccccc1)C(=O)N1CCC[C@H]1B(O)O` [Phe-boroPro], the “Persistence / reversibility of DPP-IV inhibition” value in data set [1] was “more rapidly reversible”.
For the compound `O=C(C1CCCN1)N1CCCC1B(O)O` (stereo not drawn) [Pro-boroPro], in the data set on Lewis rats (setting [5]), the “MTD (maximum tolerated dose)” value is reported as “≧2,000 μg/kg”. Moreover, in data set [1], the “Persistence / reversibility of DPP-IV inhibition” value is given as “more rapidly reversible”.
With `N[C@@H](CO)C(=O)N1CCC[C@H]1B(O)O` [Ser-boroPro], in the data set on Lewis rats (setting [5]), the “MTD (maximum tolerated dose)” value was 4,000 μg/kg.
Still for that read-out and setting: then `C[C@@H](O)[C@H](N)C(=O)N1CCC[C@H]1B(O)O` [Thr-boroPro], with 800 µg/kg.
In the case of `CC(C)[C@H](N)C(=O)N1CCC[C@H]1B(O)O` [Val-boroPro], the “ID50 (dose causing a 50% reduction in serum DPP-IV activity from baseline)” value on serum DPP-IV [4] worked out at 0.009 mg/kg. Besides, the “MTD (maximum tolerated dose)” value in the data set on Lewis rats (setting [5]) was 20 µg/kg. Besides, in the data set on serum KC/CXCL1, the “Effect on serum levels of KC/CXCL1” value is reported as “stimulate increased serum levels of KC/CXCL1 in a dose-dependent manner”.
